≈ marks a conversion by molar mass, not a printed value.
Experiments:
Type in all cases: cell-based
[1] = test system: Enterococcus faecalis ATCC 29212; test: Broth microdilution MIC, E. faecalis ATCC 29212; details: ATCC29212, broth microdilution, 37° C., 20 hours, read-out: MIC E. faecalis ATCC 29212
Method in brief: (§1)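 Two-fold dilutions from 64 to 0.0625 μg/ml final, 1% DMSO, were inoculated at ~5.0×10^5 cfu/ml in the strain's test medium and kept 20 h at 37 °C in ambient atmosphere. Colonies were grown on MHA, with S. pneumoniae on blood agar under 5% CO2.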

[2] = test system: Escherichia coli ATCC 25922; test: Broth microdilution MIC, E. coli ATCC 25922 (MHIIB w & w/o 4 mM EDTA); details: broth microdilution, 37° C., 20 hours; for MIC: Escherichia coli, ATCC25922, without EDTA, read-out: MIC E. coli ATCC 25922; for MIC E. coli ATCC 25922 + 4 mM EDTA: with 4 mM EDTA
Method in brief: as §1

[3] = test system: Bacillus subtilis ATCC 6633; test: Broth microdilution MIC, B. subtilis ATCC 6633; details: ATCC6633, broth microdilution, 37° C., 20 hours, read-out: MIC B. subtilis ATCC 6633
Method in brief: as §1

[4] = test system: Streptococcus pneumoniae ATCC 49619; test: Broth microdilution MIC, S. pneumoniae ATCC 49619; details: ATCC49619, broth microdilution, 37° C., 20 hours, read-out: MIC S. pneumoniae ATCC 49619
Method in brief: as §1

[5] = test system: Enterococcus faecium ATCC 700221 (VRE); test: Broth microdilution MIC, E. faecium ATCC 700221 (VRE); set-up: MIC E. faecium ATCC 700221 (VRE): unit: ug/mL; details: broth microdilution, 37° C., 20 hours; for MIC: Enterococcus faecium, read-out: MIC E. faecium ATCC 700221 (VRE)
Method in brief: as §1

[6] = test system: Staphylococcus aureus ATCC 29213 (MSSA); test: Broth microdilution MIC, S. aureus ATCC 29213 (MSSA); details: broth microdilution, 37° C., 20 hours, read-out: MIC S. aureus ATCC 29213 (MSSA)
Method in brief: as §1

[7] = test system: Staphylococcus aureus NRS384 (MRSA); test: Broth microdilution MIC, S. aureus NRS384 (MRSA); details: Staphylococcus aureus; broth microdilution, 37° C., 20 hours; read-out: MIC NRS 384 (MRSA)
Method in brief: as §1

Row | Structure (SMILES) | MIC [1] [µg/mL] | MIC [2] [µg/mL] | MIC E. coli ATCC 25922 + 4 mM EDTA [2] [µg/mL] | MIC [3] [µg/mL] | MIC [4] [µg/mL] | MIC E. faecium ATCC 700221 (VRE) [5] | MIC [6] [µg/mL] | MIC [7] [µg/mL] | MIC [5] [µg/mL]
1 | Cl.O=c1[nH]c(NCc2ccc(Cl)c(Cl)c2)nc2cnn(CCN3C[C@@H]4C[C@H]3CO4)c12 [Compound 68, 1-(2-((1 S,4S)-2-oxa-5-azabicyclo[2.2.1]heptan-5-yl)ethyl)-5-((3,4-dichlorobenzyl)amino)-1H-pyrazolo[4,3-d]pyrimidin-7(6H)-one hydrochloride] | 4 | > 64 | 64 | 1 | 4 | 4/2 | 4 | 4 | –
2 | CN1CC2CC1CN2CCn1ncc2nc(NCc3ccc(Cl)c(Cl)c3)[nH]c(=O)c21.Cl.Cl (stereo not shown) [Compound 69, 5-((3,4-Dichlorobenzyl)amino)-1-(2-(5-methyl-2,5-diazabicyclo[2.2.1]heptan-2-yl)ethyl)-1H-pyrazolo[4,3-d]pyrimidin-7(6H)-one dihydrochloride] | 32 | > 64 | >64 | 4 | 8 | – | 32 | 64 | > 64
3 | Cl.O=c1[nH]c(NCc2ccc(Cl)c(Cl)c2)nc2cnn(CCN3CC(O)C3)c12 [Compound 70, 5-((3,4-Dichlorobenzyl)amino)-1-(2-(3-hydroxyazetidin-1-yl)ethyl)-1H-pyrazolo[4,3-d]pyrimidin-7(6H)-one hydrochloride] | 64 | > 64 | 64 | 16 | 8 | – | > 64 | 64 | > 64
4 | Cl.Cl.O=c1[nH]c(NCc2ccc(Cl)c(Cl)c2)nc2cnn(CCN3CCN(CCO)CC3)c12 [Compound 71, 5-((3,4-Dichlorobenzyl)amino)-1-(2-(4-(2-hydroxyethyl)piperazin-1-yl)ethyl)-1H-pyrazolo[4,3-d]pyrimidin-7(6H)-one dihydrochloride] | 32 | > 64 | >64 | 4 | 4 | – | 32 | 64 | 16
5 | CN(C)C(=O)C1CN(CCn2ncc3nc(NCc4ccc(Cl)c(Cl)c4)[nH]c(=O)c32)CCO1.Cl (stereo not shown) [Compound 72, 4-(2-(5-((3,4-Dichlorobenzyl)amino)-7-oxo-6,7-dihydro-1H-pyrazolo[4,3-d]pyrimidin-1-yl)ethyl)-N,N-dimethylmorpholine-2-carboxamide hydrochloride] | 8 | > 64 | >64 | 4 | 8 | – | 16 | 16 | 8
6 | CN(C)CC1CN(CCn2ncc3nc(NCc4ccc(Cl)c(Cl)c4)[nH]c(=O)c32)CCO1.Cl.Cl (stereo not shown) [Compound 73, 5-((3,4-Dichlorobenzyl)amino)-1-(2-(2-((dimethylamino)methyl)morpholino)ethyl)-1H-pyrazolo[4,3-d]pyrimidin-7(6H)-one dihydrochloride] | 16 | > 64 | >64 | 4 | 8 | – | 16 | 16 | 8
7 | O=c1[nH]c(NCc2ccc(Cl)c(Cl)c2)nc2cnn(CCN3CCNCC3)c12 [Compound 74, 5-((3,4-dichlorobenzyl)amino)-1-(2-(piperazin-1-yl)ethyl)-1H-pyrazolo[4,3-d]pyrimidin-7(6H)-one] | 64 (≈ 152 µM) | > 64 | >64 | 8 (≈ 18.9 µM) | 16 (≈ 37.9 µM) | – | 32 (≈ 75.8 µM) | 64 (≈ 152 µM) | 16 (≈ 37.9 µM)
8 | O=c1[nH]c(NCc2ccc(Cl)c(Cl)c2)nc2cnn(CC(O)CO)c12 (stereo not shown) [Compound 75, 5-((3,4-dichlorobenzyl)amino)-1-(2,3-dihydroxypropyl)-1H-pyrazolo[4,3-d]pyrimidin-7(6H)-one] | 16 (≈ 41.6 µM) | > 64 | >64 | 8 (≈ 20.8 µM) | 4 (≈ 10.4 µM) | – | 16 (≈ 41.6 µM) | 16 (≈ 41.6 µM) | 8 (≈ 20.8 µM)
9 | O=c1[nH]c(NCc2ccc(Cl)c(Cl)c2)nc2cnn(CCO)c12 [Compound 76, 5-((3,4-dichlorobenzyl)amino)-1-(2-hydroxyethyl)-1H-pyrazolo[4,3-d]pyrimidin-7(6H)-one] | 4 (≈ 11.3 µM) | > 64 | >64 | 2 (≈ 5.65 µM) | 4 (≈ 11.3 µM) | – | 4 (≈ 11.3 µM) | 4 (≈ 11.3 µM) | 2 (≈ 5.65 µM)
10 | O=c1[nH]c(NCc2ccc(Cl)c(Cl)c2)nc2cnn(CCNCCn3ncc4nc(NCc5ccc(Cl)c(Cl)c5)[nH]c(=O)c43)c12 [Compound 78] | 8 (≈ 11.6 µM) | > 64 | >64 | 4 (≈ 5.8 µM) | 32 (≈ 46.4 µM) | – | 64 (≈ 92.8 µM) | 32 (≈ 46.4 µM) | 2 (≈ 2.9 µM)
11 | Cc1noc(C)c1C(=O)NCCn1ncc2nc(NCc3ccc(Cl)c(Cl)c3)[nH]c(=O)c21 [Compound 79, N-(2-(5-((3,4-dichlorobenzyl)amino)-7-oxo-6,7-dihydro-1H-pyrazolo[4,3-d]pyrimidin-1-yl)ethyl)-3,5-dimethylisoxazole-4-carboxamide] | 16 (≈ 33.6 µM) | > 64 | >64 | 16 (≈ 33.6 µM) | 8 (≈ 16.8 µM) | – | 16 (≈ 33.6 µM) | 32 (≈ 67.2 µM) | 8 (≈ 16.8 µM)
12 | Cc1noc(C)c1C(=O)N(C)CCn1ncc2nc(NCc3ccc(Cl)c(Cl)c3)[nH]c(=O)c21 [Compound 80, N-(2-(5-((3,4-dichlorobenzyl)amino)-7-oxo-6,7-dihydro-1H-pyrazolo[4,3-d]pyrimidin-1-yl)ethyl)-N,3,5-trimethylisoxazole-4-carboxamide] | 32 (≈ 65.3 µM) | > 64 | 64 | 16 (≈ 32.6 µM) | 8 (≈ 16.3 µM) | – | 32 (≈ 65.3 µM) | 32 (≈ 65.3 µM) | 16 (≈ 32.6 µM)
13 | CN(CCn1ncc2nc(NCc3ccc(Cl)c(Cl)c3)[nH]c(=O)c21)C(=O)c1cc(Cl)nnc1O [Compound 81, 6-Chloro-N-(2-(5-((3,4-dichlorobenzyl)amino)-7-oxo-6,7-dihydro-1H-pyrazolo[4,3-d]pyrimidin-1-yl)ethyl)-3-hydroxy-N-methylpyridazine-4-carboxamide] | 32 (≈ 61.1 µM) | > 64 | 64 | 64 (≈ 122 µM) | 8 (≈ 15.3 µM) | – | 64 (≈ 122 µM) | 64 (≈ 122 µM) | 32 (≈ 61.1 µM)
14 | CN(CCn1ncc2nc(NCc3ccc(Cl)c(Cl)c3)[nH]c(=O)c21)C(=O)c1cnoc1 [Compound 82, N-(2-(5-((3,4-dichlorobenzyl)amino)-7-oxo-6,7-dihydro-1H-pyrazolo[4,3-d]pyrimidin-1-yl)ethyl)-N-methylisoxazole-4-carboxamide] | 8 (≈ 17.3 µM) | > 64 | >64 | 8 (≈ 17.3 µM) | 8 (≈ 17.3 µM) | – | 16 (≈ 34.6 µM) | 16 (≈ 34.6 µM) | 4 (≈ 8.65 µM)

From US10723741B1, “DNA polymerase IIIC inhibitors and use thereof” (Acurx Pharmaceuticals, LLC, priority 2018, dated 2020)
